Laboratory results: patent publication US10023565B2, “N,N′ substituted piperidinamine compounds, and preparation method and usage thereof” (Institute of Pharmacology and Toxicology Academy of …, priority 2013, dated 2018)

Tests used:
Assay in all cases: Antitumor bioactivity evaluation, breast cancer cells (ATPlite)
BT474 = assay type: cell-based; settings: Homo sapiens, BT-474; test sample 5 μM, 72 hours; read-out: Inhibitory Rate % BT474
Procedure: (§1) Antitumor bioactivity evaluation of the compounds of Examples according to the method described below
(§2) Cells plating: a 100 mm culture dish with overgrown adherent cells was digested with 1 ml 0.25% trypsin (GIBCO) at 37° C. for 5 min, and the reaction was terminated with 2 ml culture medium (containing 10% FBS, GIBCO). The cells were scattered and collected, after counting, diluted to 1×10^5 cells/ml, and seeded into a 96-well plate at 50 μl/well, 5000 cells/well, excluding the peripheral circle of wells in which no cell was added, but PBS was added, 60 wells in total, and then incubated at 37° C. for 24 hours for adhering.
(§3) Addition of the compound and lapatinib: the test sample was diluted to a final concentration of 5 μM, and the culture medium with the corresponding compound solvent concentration was filled in the control well, the compound solvent concentration was kept consistent in each well, 5 parellel wells were set for each concentration, 25 μl each well, 25 μl culture medium (in combined group, 25 μl lapatinib was added till a final concentration of 1 μM) supplemented, followed by incubation at 37° C. for 72 hours.
(§4) Test after incubation at 37° C. for 72 hours: 50 μL of ATPlite kit substrate solution was added in each well, and vibrated for 3 min, followed by placing aside in darkness for 10 min, and then supernatant 100 μl/well was taken and placed on aluminescence test plate; the luminescence test plate that has been fully incubated was placed in a luminescence test instrument, to read luminescence value.
(§5) 1. Cell survival rate (%)=Experimental group RLU/control group RLU×100%. The experimental data were subjected to data analysis and processing by utilizing GraphPad software.

MDA-MB-361 = assay type: cell-based; settings: Homo sapiens, test sample 5 μM, 72 hours, read-out: Inhibitory Rate % MDA-MB-361
Procedure: as §1, §2, §3, §4, §5

MDA-MB-453 = assay type: cell-based; settings: Homo sapiens, test sample 5 μM, 72 hours, read-out: Inhibitory Rate % MDA-MB-453
Procedure: as §1, §2, §3, §4, §5

SK-BR3 = assay type: cell-based; settings: Homo sapiens, SK-BR-3; test sample 5 μM, 72 hours; read-out: Inhibitory Rate % SK-BR3
Procedure: as §1, §2, §3, §4, §5

SK/Lap^R1.0 = assay type: cell-based; settings: Homo sapiens; test sample 5 μM, 72 hours; read-out: Inhibitory Rate % SKLap^R1.0
Procedure: as §1, §2, §3, §4, §5

BT/Lap^R1.0 = assay type: cell-based, human; settings: Homo sapiens; test sample 5 μM, 72 hours; read-out: Inhibitory Rate % BT/Lap^R1.0
Procedure: as §1, §2, §3, §4, §5

Row | SMILES | inhibition at 5 µM (BT474) | inhibition at 5 µM (MDA-MB-361) | inhibition at 5 µM (MDA-MB-453) | inhibition at 5 µM (SK-BR3) | inhibition at 5 µM (SK/Lap^R1.0) | inhibition at 5 µM (BT/Lap^R1.0)
1 | CN(Cc1cccc(F)c1)C1CCN(Cc2cnc(Cl)s2)CC1 [Example 23, N-methyl-N-(3-fluorobenzyl)-N-{[1-(2-chlorothiazol-5-yl)methyl]piperidin-4-yl}amine] | 2.4% | 3.2% | 4.4% | 4.2% | 1.3% | 5.7%
2 | COc1nccc(N2CCC(N(C)Cc3ccc(C#N)cc3)CC2)n1 [Example 48, N-methyl-N-(4-cyanobenzyl)-N-[1-(2-methoxypyrimidin-4-yl)piperidin-4-yl]amine] | 71.6% | 53.3% | 79.5% | 86.5% | 74.3% | 72.7%
3 | COc1nccc(N2CCC(N(C)Cc3cccc(Cl)c3)CC2)n1 [Example 55, N-methyl-N-(3-chlorobenzyl)-N-[1-(2-methoxypyrimidin-4-yl)piperidin-4-yl]amine] | 36.2% | 23.2% | 56.7% | 18.5% | 15.1% | 26.2%
4 | COc1nccc(N2CCC(N(C)Cc3c(F)cccc3Cl)CC2)n1 [Example 54, N-methyl-N-(2-fluoro-6-chlorobenzyl)-N-[1-(2-methoxypyrimidin-4-yl)piperidin-4-yl]amine] | 65.4% | 48.3% | 64.7% | 27.7% | 17.2% | 62.4%
5 | COc1nccc(N2CCC(N(C)Cc3cccc(F)c3)CC2)n1 [Example 56, N-methyl-N-(3-fluorobenzyl)-N-[1-(2-methoxypyrimidin-4-yl)piperidin-4-yl]amine] | 9.9% | 8.5% | 27.9% | 9.2% | 3.9% | 10.5%
6 | CN(Cc1ccc(F)cc1)C1CCN(Cc2cnc(Cl)s2)CC1 [Example 16, N-methyl-N-(4-fluorobenzyl)-N-{1-[(2-chlorothiazol-5-yl)methyl]piperidin-4-yl}amine] | 7.1% | -1.3% | 11% | 18.6% | -0.1% | 9%
7 | CCOc1ncc(CN2CCC(N(C)Cc3ccc(F)cc3)CC2)s1 [Example 7, N-methyl-N-(4-fluorobenzyl)-N-{[1-(2-ethoxythiazol-5-yl)methyl]piperidin-4-yl}amine] | 36.4% | 24.2% | 52.9% | 26% | 25.1% | 20.7%
8 | COc1nccc(N2CCC(N(C)Cc3ccc(Cl)c(Cl)c3)CC2)n1 [Example 53, N-methyl-N-(3,4-dichlorobenzyl)-N-[1-(2-methoxypyrimidin-4-yl)piperidin-4-yl]amine] | 52.9% | 41.7% | 60.2% | 27.7% | 16.8% | 35.8%
9 | CN(Cc1ccc(Cl)cc1Cl)C1CCN(Cc2cnc(Cl)s2)CC1 [Example 20, N-methyl-N-(2,4-dichlorobenzyl)-N-{[1-(2-chlorothiazol-5-yl)methyl]piperidin-4-yl}amine] | 64.1% | 30.1% | 60.8% | 47.1% | 11.4% | 61.8%
10 | COc1cc(N2CCC(N(C)Cc3ccc(Cl)c(Cl)c3)CC2)ncn1 [Example 61, N-methyl-N-(3,4-dichlorobenzyl)-N-[1-(6-methoxypyrimidin-4-yl)piperidin-4-yl]amine] | 9.8% | 6.5% | 12.7% | 16.1% | 28% | 9.2%
11 | CCOc1ncc(CN2CCC(N(C)Cc3ccccc3Cl)CC2)s1 [Example 6, N-methyl-N-(2-chlorobenzyl)-N-{1-[(2-ethoxythiazol-5-yl)methyl]piperidin-4-yl}amine] | 10.1% | 33.3% | 36.4% | 12.6% | 0.6% | 13.3%
12 | CSc1ncc(CN2CCC(N(C)Cc3ccccc3C)CC2)s1 [Example 25, N-methyl-N-(2-methylbenzyl)-N-{[1-(2-methylthiothiazol-5-yl)methyl]piperidin-4-yl}amine] | 15.5% | 31.7% | 35.1% | 21.9% | 6.9% | 1.4%
13 | CCOc1ncc(CN2CCC(N(C)Cc3c(F)cccc3Cl)CC2)s1 [Example 5, N-methyl-N-(2-fluoro-6-chlorobenzyl)-N-{1-[(2-ethoxythiazol-5-yl)methyl]piperidin-4-yl} amine] | 54.4% | 32.8% | 67.4% | 40.9% | 11.7% | 50.5%
14 | CSc1nccc(N2CCC(N(C)Cc3ccccc3C#N)CC2)n1 [Example 41, N-methyl-N-(2-cyanobenzyl)-N-[1-(2-methylthiopyrimidin-4-yl)piperidin-4-yl]amine] | 69.2% | 55.7% | 66.6% | 38.9% | 42% | 65.8%
15 | CCOc1ncc(CN2CCC(N(C)Cc3cccc(Cl)c3)CC2)s1 [Example 1, N-methyl-N-m-chlorobenzyl-N-{1-[(2-ethoxythiazol-5-yl)methyl]piperidin-4-yl}amine] | 14.4% | 14.2% | 41.2% | 16.7% | 5.2% | 12.5%
16 | COc1nccc(N2CCC(N(C)Cc3ccccc3C#N)CC2)n1 [Example 50, N-methyl-N-(2-cyanobenzyl)-N-[1-(2-methoxypyrimidin-4-yl)piperidin-4-yl]amine] | 27.5% | 22% | 50.6% | 24.7% | 11.7% | 22.7%
17 | CN(Cc1ccc(Cl)c(Cl)c1)C1CCN(Cc2cnc(Cl)s2)CC1 [Example 17, N-methyl-N-(3,4-dichlorobenzyl)-N-{1-[(2-chlorothiazol-5-yl)methyl]piperidin-4-yl}amine] | 45.4% | 42.9% | 63.8% | 34.3% | 5.3% | 53.4%
18 | CSc1nccc(N2CCC(N(C)Cc3ccc(Cl)c(Cl)c3)CC2)n1 [Example 38, N-methyl-N-(3,4-dichlorobenzyl)-N-[1-(2-methylthiopyrimidin-4-yl)piperidin-4-yl]amine] | 39.5% | 29.5% | 60% | 30.1% | 12.9% | 29.9%
19 | CSc1ncc(CN2CCC(N(C)Cc3c(Cl)cccc3Cl)CC2)s1 [Example 32, N-methyl-N-(2,6-dichlorobenzyl)-N-{1-[(2-methylthiothiazol-5-yl)methyl]piperidin-4-yl}amine] | 54.9% | 45.2% | 63.7% | 24.3% | 26.8% | 54.9%
20 | CN(Cc1c(Cl)cccc1Cl)C1CCN(Cc2cnc(Cl)s2)CC1 [Example 24, N-methyl-N-(2,6-dichlorobenzyl)-N-{[1-(2-chlorothiazol-5-yl)methyl]piperidin-4-yl}amine] | 11.1% | 10.2% | 21.1% | 19% | 8.5% | 7.1%
21 | CSc1ncc(CN2CCC(N(C)Cc3ccc(Cl)c(Cl)c3)CC2)s1 [Example 30, N-methyl-N-(3,4-dichlorobenzyl)-N-{1-[(2-methylthiothiazol-5-yl)methyl]piperidin-4-yl}amine] | 62.6% | 42.1% | 69.9% | 42.4% | 10.1% | 67.1%
